Measurements reported in patent US11767330B2, “Citrate salt, pharmaceutical compositions, and methods of making and using the same” (Foghorn Therapeutics Inc., priority 2021, dated 2023).
Entries after “also recorded” stand apart in the source; their conditions may differ.

Target: T1, BRD9 (Homo sapiens, UniProt Q9H8M2)
T1 sequence (Q9H8M2 1-597): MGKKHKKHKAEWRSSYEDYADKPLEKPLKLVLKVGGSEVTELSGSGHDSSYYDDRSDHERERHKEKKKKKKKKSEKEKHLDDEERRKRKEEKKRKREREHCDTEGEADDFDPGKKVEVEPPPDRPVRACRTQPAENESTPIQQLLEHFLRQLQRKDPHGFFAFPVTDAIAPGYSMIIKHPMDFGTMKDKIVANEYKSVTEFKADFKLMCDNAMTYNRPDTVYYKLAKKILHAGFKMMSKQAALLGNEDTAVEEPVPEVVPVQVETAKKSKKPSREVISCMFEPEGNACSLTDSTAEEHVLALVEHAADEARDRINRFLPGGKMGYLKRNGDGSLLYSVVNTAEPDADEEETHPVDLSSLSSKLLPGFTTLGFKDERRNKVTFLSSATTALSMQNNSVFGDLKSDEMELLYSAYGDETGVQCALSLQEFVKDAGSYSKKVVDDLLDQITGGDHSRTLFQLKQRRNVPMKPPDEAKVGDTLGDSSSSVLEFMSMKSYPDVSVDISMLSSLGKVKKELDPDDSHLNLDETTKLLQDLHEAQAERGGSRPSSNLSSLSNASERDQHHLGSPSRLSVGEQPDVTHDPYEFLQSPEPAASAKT
Experiment: BRD9 degradation in synovial sarcoma tumor in vivo, western blot (Example 12)
Set-up: Tumors were lysed with 1×RIPA lysis buffer; from tissue; host or cells: SYO-1 xenograft tumours in BALB/c Nude mice; species or system mice
Details: 1 mg/kg, i.p., 4 weeks; tumors 8, 72, 168 hours post last dose
Protocol: Method: Mice were treated with D1, 1 mg/kg, i.p. for 4 weeks. Mice were then euthanized, and tumors were collected at 8 hours, 72 hours, and 168 hours post last dose. Tumors were lysed with 1×RIPA lysis buffer (Boston BioProducts, BP-115D) with protease and phosphatase protein inhibitor (Roche Applied Science #04906837001 & 05892791001). Equal amounts of lysate (30 μg) were loaded in 4-12% Bis-Tris Midi Protein Gels in 1×MOPS buffer; samples ran at 120 V for 120 minutes. Protein was transferred to membrane with TransBlot at 250 mA for 150 minutes, and then membranes were blocked with Odyssey blocking buffer for 1 hour at room temperature. Membranes were hybridized overnight in cold room with primary antibodies. Images acquired using Li—COR imaging system (Li—COR Biotechnology, Lincoln, Nebr.).

COc1cc(-c2cn(C)c(=O)c3cnc(N4CCC4)cc23)cc(OC)c1CN1CCC(CN2CCC3(CC2)CN(c2ccc4c(c2)C(=O)N(C2CCC(=O)NC2=O)C4)C3)CC1 (racemic) [Compound D1, 3-[6-(7-[[1-([4-[6-(azetidin-1-yl)-2-methyl-1-oxo-2,7-naphthyridin-4-yl]-2,6-dimethoxyphenyl]methyl)piperidin-4-yl]methyl]-2,7-diazaspiro[3.5]nonan-2-yl)-1-oxo-3H-isoindol-2-yl]piperidine-2,6-dione]
BRD9 level in tumor (western blot): BRD9 inhibition; also recorded: complete degradation of BRD9 target up to 168 hours after dose
